“Also recorded” adds a separate entry of the source.
Experiment: Fuchsine staining of free aldehyde groups on fixed, detoxified tissue (observed colour)
Set-up: species or system bovine
Details: FIG. 1 samples; detoxified at room temperature about 24 hours; homocysteic acid 1.00% w/v or taurine 0.70% w/v in phosphate buffer pH 7; weaker staining = fewer free aldehyde groups
Procedure: The efficacy of the method described herein, and therefore the occurrence of the reaction between the amino groups of the detoxifying molecule and the aldehyde groups present on the fixed tissue, is evaluated by staining of the aldehyde groups remaining free. The greater the staining intensity, the more numerous are the free aldehyde groups and, on the contrary, the weaker (or absent) the staining, the less numerous (or absent) are the free aldehyde groups present on the detoxified tissue.
The detoxification step was conducted at room temperature (20° C.), 40° C. and 50° C., for a period of time of 24 hours, using about 200 ml of solution for each tissue.
a second control sample (FIG. 1B) fixed with glutaraldehyde and detoxified with a solution containing homocysteic acid at a concentration (w/v) of 1.00% in phosphate buffer pH 7;
The tissue samples were immersed in the detoxifying solutions for about 24 hours at room temperature with gentle agitation.
The samples were immersed in the detoxifying solution for about 24 hours with gentle agitation both at room temperature and at 40° C.; the fourth sample detoxified at 50° C. was maintained immersed for 7-8 hours with gentle agitation.
Tissue staining to detect free aldehyde groups uses an acidic solution of rosaniline hydrochloride (fuchsine). […]

Q: Which Staining observed does the source give for `N[C@@H](CCS(=O)(=O)O)C(=O)O` [homocysteic acid] here?
A: less than that of the control sample; also recorded: Violet

— patent US20160158415A1, “METHOD FOR DETOXIFYING A BIOLOGICAL TISSUE” (Sorin Group Italia S.r.l., priority 2010, published 2016)
